Assay results published in article PMC5840262, “Design, Synthesis and Evaluation of Branched RRWQWR-Based Peptides as Antibacterial Agents Against Clinically Relevant Gram-Positive and Gram-Negative Pathogens” (Frontiers in Microbiology, 2018).
≈ marks a conversion by molar mass, not a printed value. Read-outs that look alike come from different tables or passages of the source. Bridge positions count the residues as written; N and C are the ends. Square brackets hold non-standard residues; d marks the D form. Ends that are not written are not given here. Peptide text beside a SMILES is read from it. I, II: the chains in the order shown. Ahx = NCCCCCC(=O)O

Columns and labels:
[1] = test system: Enterococcus faecalis ATCC 29212 (sensitive); format: cell-based; details: for Bacterial viability (lowest value observed): untreated control = 100%, Figure 2A
Method: (§1) We screened all five peptides against the ATCC reference strains and the clinical isolates according to Method M7-A7 of the National Committee for Clinical Laboratory Standards (CLSI, [2007]). The MIC50 and MBC values were determined using a broth microdilution and growth inhibition method previously reported by Leon-Calvijo et al. ([2015]), with some modifications (Wiegand et al., [2008]). Briefly, the MIC50 experiments comprised a liquid-inhibition growth assay in a sterile, untreated, 96-well flat-bottom tissue culture plate. The bacteria were cultured overnight n Mueller Hinton agar; three colonies were transferred to 8 mL of Mueller Hilton broth and incubated at 37°C until the mid-exponential phase of growth. The turbidity of the cultures was measured and adjusted spectrophotometrically to a McFarland standard of 0.5, and then diluted to a final concentration of 5 × 10^7 colony forming units (CFU) per well. Stock solutions (2,000 μM) of each test peptide were serially diluted to final concentrations (per well) of 200, 100, 50, 25, 12.5, and 6.25 μM. Each concentration was evaluated in duplicate and each assay was performed in triplicate.
(§2) Wells containing Mueller Hilton broth with bacterial inoculum only served as bacterial-growth controls. Additional controls included Mueller Hilton broth alone (as blank) and Mueller Hilton broth with ciprofloxacin (2 μg/mL; as positive control). The microplate was incubated for 24 h at 37°C, and growth inhibition was measured by monitoring the optical density at 620 nm (OD620). The MIC50 was defined as the peptide concentration at which bacterial growth was inhibited by 50%.
(§3) To determine the MBC, an aliquot from each well of the MIC50 assay was spread onto Mueller Hilton agar. After 18 h at 37°C, the concentration that inhibited bacterial growth was determined. Each of these tests was performed four times. MBC was defined as the lowest concentration of peptide at which the number of bacteria was reduced by 99.9% in vitro (European Committee for Antimicrobial Susceptibility Testing, [2000]).

[2] = test system: Enterococcus faecalis ATCC 51575 (resistant); format: cell-based; details: for Bacterial viability (lowest value observed): untreated control = 100%, Figure 2B
Method: as §1, §2, §3

[3] = test system: Pseudomonas aeruginosa ATCC 10145 (sensitive); format: cell-based
Method: as §1, §2, §3

[4] = test system: Pseudomonas aeruginosa ATCC 27853 (resistant); format: cell-based
Method: as §1, §2, §3

[5] = test system: Enterococcus faecium clinical isolate 1,040; format: cell-based
Method: (§4) For the clinical isolates, we used 20 different isolates from the Public Health Reference Laboratory collection of the Secretaría de Salud del Distrito (SdSD; Bogotá, Colombia). The samples were collected from June to December 2016. For each isolate, the patient parameters (age, gender and location) and the culture site were recorded for epidemiologic monitoring (Table 1). All isolates had been previously tested for antibiotic sensitivity at the Public Health Microbiology Laboratory using either the Phoenix™ system (Gram-positive) or the VITEK 2 system (Gram-negative).
as §1, §2, §3

[6] = test system: Klebsiella pneumoniae clinical isolate 49,644; format: cell-based
Method: as §4, §1, §2, §3

[7] = test system: Klebsiella pneumoniae clinical isolate 51,009; format: cell-based
Method: as §4, §1, §2, §3

[8] = test system: Pseudomonas aeruginosa clinical isolate 47,661; format: cell-based
Method: as §4, §1, §2, §3

[9] = test system: Pseudomonas aeruginosa clinical isolate 48,458; format: cell-based
Method: as §4, §1, §2, §3

[10] = test system: Gram-negative ATCC strains (K. pneumoniae 13883 and 700603, P. aeruginosa 10145 and 27853); details: for Fold (GM peptide / GM tetrameric peptide): Gram-negative ATCC strains
Text: (§5) We determined the therapeutic index of each peptide, which we defined as the ratio of Maximum Hemolytic Activity (Hmax) to MIC50 (Hmax/MIC50).
The therapeutic index (TI) is a ratio of the toxic dose of a substance to its therapeutically-active dose and can be calculated different ways (e.g., LD50/ED50). Here, we calculated a TI value for each peptide against all the Gram-positive or the Gram-negative ATCC strains, by dividing its Hmax by its MIC50 for the given group of strains. […] Additionally, to make our quantitative analysis more robust [geometric mean (Khachatryan et al., [2017]) and fold values], we have included MIC50 values for these peptides against S. aureus and K. pneumoniae that we previously obtained using the same assay, the M7-A7 method of the National Committee for Clinical Laboratory Standards (Leon-Calvijo et al., [2015]).

[11] = test system: clinical isolates of Gram-positive bacteria (Enteroccocus faecium, Staphylococcus aureus); test: Therapeutic index, Gram-positive clinical isolates; details: for Fold (GM peptide / GM tetrameric peptide): Gram-positive clinical isolates
Text: as §5
The results are shown in Table 7 (Gram-positive) and Table 8 (Gram-negative). Regarding the Gram-positive bacteria, the palindromic, dimeric and tetrameric peptides were active chiefly against S. aureus. This trend was consistent with results of the experiments on the ATCC strains, in which these peptides were only active against the sensitive strain of the […] bacteria.

[12] = E. faecalis ATCC 29212 sensitive, aliquots of MIC50 wells on Mueller Hinton agar, 18 h 37°C, 99.9% reduction
[13] = E. faecalis ATCC 29212 sensitive, broth microdilution, Mueller Hinton broth, 24 h 37°C, OD620, concentration inhibiting growth by 50%
[14] = E. faecalis ATCC 51575 resistant, broth microdilution, 24 h 37°C, OD620, 50% growth inhibition
[15] = E. faecalis ATCC 51575 resistant, plated on Mueller Hinton agar, 18 h 37°C, 99.9% reduction
[16] = P. aeruginosa ATCC 10145 sensitive, broth microdilution, 24 h 37°C, OD620, 50% growth inhibition
[17] = P. aeruginosa ATCC 10145 sensitive, plated on Mueller Hinton agar, 18 h 37°C, 99.9% reduction
[18] = P. aeruginosa ATCC 27853 resistant, broth microdilution, 24 h 37°C, OD620, 50% growth inhibition
[19] = P. aeruginosa ATCC 27853 resistant, plated on Mueller Hinton agar, 18 h 37°C, 99.9% reduction
[20] = E. faecium isolate 1,040, broth microdilution, 24 h 37°C, OD620, 50% growth inhibition
[21] = E. faecium isolate 1,040, plated on agar 18 h 37°C, 99.9% reduction
[22] = K. pneumoniae isolate 51,009, broth microdilution, 24 h 37°C, OD620, 50% growth inhibition
[23] = K. pneumoniae isolate 51,009, plated on agar 18 h 37°C, 99.9% reduction
[24] = P. aeruginosa isolate 47,661, broth microdilution, 24 h 37°C, OD620, 50% growth inhibition
[25] = P. aeruginosa isolate 47,661, plated on agar 18 h 37°C, 99.9% reduction
[26] = P. aeruginosa isolate 48,458, broth microdilution, 24 h 37°C, OD620, 50% growth inhibition
[27] = P. aeruginosa isolate 48,458, plated on agar 18 h 37°C, 99.9% reduction

RWQWRWQWR [PLS]
MBC ([1]; ATCC 29212, 18 h): 100.0 µM | MIC50 ([1]; ATCC 29212, 24 h): 25.6 µM | MBC ([2]; ATCC 51575, 18 h): >200.0 µM | MIC50 ([2]; ATCC 51575, 24 h): >200.0 µM | MBC ([3]; ATCC 10145, 18 h): >200.0 µM | MIC50 ([3]; ATCC 10145, 24 h): 99.7 µM | MBC ([4]; ATCC 27853, 18 h): >200.0 µM | MIC50 ([4]; ATCC 27853, 24 h): 107.2 µM | MBC ([5]; clinical isolate 1,040, 18 h): >100 µM | MIC50 ([5]; clinical isolate 1,040, 24 h): >100 µM | MBC ([6]; clinical isolate 49,644, 18 h): 100.0 µM | MIC50 ([6]; clinical isolate 49,644, 24 h): 12.5 µM | MBC ([7]; clinical isolate 51,009, 18 h): 100.0 µM | MIC50 ([7]; clinical isolate 51,009, 24 h): 25.6 µM | MBC ([8]; clinical isolate 47,661, 18 h): >100 µM | MIC50 ([8]; clinical isolate 47,661, 24 h): 75.0 µM | MBC ([9]; clinical isolate 48,458, 18 h): >100 µM | MIC50 ([9]; clinical isolate 48,458, 24 h): >100 µM | Gm, geometric mean of MIC50 values [10]: 54.1 | Gm, geometric mean of MIC50 values [11]: 13.7

RRWQWR-NH2 [LfcinB (20–25), reference compound]
MBC [1, 12]: >200.0 µM | MIC50 [1, 13]: >200.0 µM | MIC50 [2, 14]: 198.0 µM | MBC [2, 15]: >200.0 µM | MIC50 [3, 16]: >200.0 µM | MBC [3, 17]: >200.0 µM | MIC50 [4, 18]: >200.0 µM | MBC [4, 19]: >200.0 µM | MIC50 [5, 20]: >100 µM | MBC [5, 21]: >100 µM | MIC50 ([6]; K. pneumoniae isolate 49,644, broth microdilution, 24 h 37°C, OD620, 50% growth inhibition): >100 µM | MBC ([6]; K. pneumoniae isolate 49,644, plated on agar 18 h 37°C, 99.9% reduction): >100 µM | MIC50 [7, 22]: >100 µM | MBC [7, 23]: >100 µM | MIC50 [8, 24]: >100 µM | MBC [8, 25]: >100 µM | MIC50 [9, 26]: >100 µM | MBC [9, 27]: >100 µM

N=C(N)NCCC[C@H](NC(=O)[C@H](Cc1c[nH]c2ccccc12)NC(=O)[C@H](CCC(N)=O)NC(=O)[C@H](Cc1c[nH]c2ccccc12)NC(=O)[C@H](CCCNC(=N)N)NC(=O)[C@@H](N)CCCNC(=N)N)C(=O)NCCCC[C@H](NC(=O)[C@H](CCCNC(=N)N)NC(=O)[C@H](Cc1c[nH]c2ccccc12)NC(=O)[C@H](CCC(N)=O)NC(=O)[C@H](Cc1c[nH]c2ccccc12)NC(=O)[C@H](CCCNC(=N)N)NC(=O)[C@@H](N)CCCNC(=N)N)C(=O)NCCCCCC(N)=O [LfcinB (20–25)2] (I: H-RRWQWRK[Ahx]-NH2 / II: H-RRWQWR; amide I:7-II:C; N-terminus assumed)
Bacterial viability (lowest value observed) ([1]; 25 μM): 40.9% | MBC ([1]; ATCC 29212, 18 h): 100.0 µM (≈ 220 µg/mL) | MIC50 ([1]; ATCC 29212, 24 h): 13.1 µM (≈ 28.8 µg/mL) | MBC relative to MBC of the tetrameric peptide (× MBCtet) ([1]; sensitive E. faecalis strain): 4 × MBCtet | Bacterial viability (lowest value observed) ([2]; 25.0 μM): 65.3% | MBC ([2]; ATCC 51575, 18 h): >200.0 µM | MIC50 ([2]; ATCC 51575, 24 h): >200.0 µM | MBC ([3]; ATCC 10145, 18 h): 100.0 µM (≈ 220 µg/mL) | MIC50 ([3]; ATCC 10145, 24 h): 29.1 µM (≈ 63.9 µg/mL) | MBC relative to MBC of the tetrameric peptide (× MBCtet) ([3]; sensitive P. aeruginosa strain): 4 × MBCtet | MBC ([4]; ATCC 27853, 18 h): 200.0 µM (≈ 439 µg/mL) | MIC50 ([4]; ATCC 27853, 24 h): 34.8 µM (≈ 76.4 µg/mL) | MBC relative to MBC of the tetrameric peptide (× MBCtet) ([4]; resistant P. aeruginosa strain): 4 × MBCtet | MBC ([5]; clinical isolate 1,040, 18 h): >100 µM | MIC50 ([5]; clinical isolate 1,040, 24 h): >100 µM | MBC ([6]; clinical isolate 49,644, 18 h): 50.0 µM (≈ 110 µg/mL) | MIC50 ([6]; clinical isolate 49,644, 24 h): 12.3 µM (≈ 27 µg/mL) | MBC ([7]; clinical isolate 51,009, 18 h): 25.0 µM (≈ 54.9 µg/mL) | MIC50 ([7]; clinical isolate 51,009, 24 h): 5.6 µM (≈ 12.3 µg/mL) | MBC ([8]; clinical isolate 47,661, 18 h): >100 µM | MIC50 ([8]; clinical isolate 47,661, 24 h): 13.4 µM (≈ 29.4 µg/mL) | MBC ([9]; clinical isolate 48,458, 18 h): >100 µM | MIC50 ([9]; clinical isolate 48,458, 24 h): 75.0 µM (≈ 165 µg/mL) | Gm, geometric mean of MIC50 values [10]: 16.1 | Fold (GM peptide / GM tetrameric peptide) [10]: 1.2 | Gm, geometric mean of MIC50 values [11]: 16.4 | Fold (GM peptide / GM tetrameric peptide) [11]: 2.4

(RRWQWR)4K2Ahx2C2 (disulfide) [LfcinB (20–25)4, branched tetrameric peptide (RRWQWR)4K2Ahx2C2, two dimers linked by a cysteine disulfide bridge]
Bacterial viability (lowest value observed) ([1]; 6.2 μM): 48.9% | MBC [1, 12]: 25.0 µM | MIC50 [1, 13]: 3.1 µM | Bacterial viability (lowest value observed) ([2]; 12.5 μM): 62.4% | MIC50 [2, 14]: >200.0 µM | MBC [2, 15]: >200.0 µM | MIC50 [3, 16]: 18.1 µM | MBC [3, 17]: 50.0 µM | MIC50 [4, 18]: 21.7 µM | MBC [4, 19]: 50.0 µM | MIC50 [5, 20]: >100 µM | MBC [5, 21]: >100 µM | MIC50 [7, 22]: 1.6 µM | MBC [7, 23]: 25.0 µM | MIC50 [8, 24]: 7.5 µM | MBC [8, 25]: 25.0 µM | MIC50 [9, 26]: 72.8 µM | MBC [9, 27]: >100 µM | Fold (GM peptide / GM tetrameric peptide) [10]: 1.0 | Gm, geometric mean of MIC50 values ([10]; Gram-negative ATCC strains 13883, 700603, 10145, 27853, in µM): 13.1 | Fold (GM peptide / GM tetrameric peptide) [11]: 1.0 | Gm, geometric mean of MIC50 values ([11]; Gram-positive clinical isolates (E. faecium, S. aureus) with a printed MIC50): 7.0
